Test results as given in paper PMC12040169 (PLOS Biology, 2025).

assay: in vitro; details: human, hela cells

| SMILES | viability at 28.5 h, 10 µM [%] |
| --- | --- |
| O=C(NCCc1ccccc1)c1ccc(N2CCN(C(=O)c3ccccc3C(F)(F)F)CC2)nn1 [CBK153212] | 83.2 |

same assay, conditions: human, hela cells, % viability

| SMILES | viability at 28.5 h, 10 µM [%] |
| --- | --- |
| COC(=O)c1ccccc1OCCc1csc(NS(=O)(=O)c2cccc(Cl)c2C)n1 [CBK023735] | 116 |
| O=C(Nc1ccc(Oc2ncccn2)cc1)c1csc(-c2ccccc2)n1 [CBK298324] | 85.5 |
| CC(C)(C)OC(=O)N1CCN(c2ccc(N)c3ccccc23)CC1 [CBK003162] | 88.3 |
| COc1ccc(-c2noc(CN(C(C)=O)C3CCCCC3)n2)cc1 [CBK270264] | 111 |
| O=C(N/N=C\c1ccccc1C(F)(F)F)c1ccc(=O)[nH]n1 [CBK263389] | 100 |
| CN(C)S(=O)(=O)NCc1ccc2c(c1)OCO2 [CBK264364] | 108 |
| Cn1nccc1CCNC(=O)c1cccc(S(=O)(=O)N2CCCCC2)c1 [CBK304363] | 97 |
| Cc1nc(CN2CCN(c3ccc4nnnn4n3)CC2)cs1 [CBK306056] | 79.3 |
| c1ccc2c(CNCc3ccc4c(c3)OCO4)c[nH]c2c1 [CBK262159] | 89.5 |
| Nc1nc(-n2cnnc2)nn1-c1ccccc1 [CBK265015] | 97.2 |
| Nc1nc(-c2ccccc2)nn1C(=O)CCc1ccccc1 [CBK074471] | 95.9 |
| CCn1c(=O)n(CC(=O)NCc2ccccc2)c2cccnc21 [CBK283824] | 101 |
| Cc1nc(COc2ccc(C(=O)N3CCCC(C(N)=O)C3)cc2)no1 (stereo not drawn) [CBK305660] | 84.2 |
| O=C(CCN1C(=O)c2ccccc2C1=O)NC(=S)Nc1ccccc1 [CBK267595] | 108 |
| Cc1sc(NC(=S)NC(=O)C(C)(C)C)c(C(N)=O)c1C [CBK268943] | 97.1 |
| C=CCNC1OC(CO)C(O)C(O)C1O (stereo not drawn) [CBK261357] | 88.9 |
| CN(C)c1cccc(-c2cncc(Nc3cccc(C(F)(F)F)c3)n2)c1 [CBK065786] | 100 |
| O=C(O)Cn1cnc(-c2ccc(Br)cc2)c1 [CBK262441] | 111 |
| O=c1c2ccccc2nc(CSc2[nH]cnc3ncnc2-3)n1-c1ccc(Cl)c(Cl)c1 [CBK217854] | 93.9 |
| CC(C)C(=O)Nc1cc2cccnc2nc1-c1ccc(N(C)C)cc1 [CBK073650] | 90.6 |
| Cc1ccc(C(=O)Nc2ccccc2C(=O)N2CCN(Cc3ccccc3)CC2)cc1 [CBK263560] | 94 |
| O=C(O)/C=C/C(=O)Nc1ccc(S(=O)(=O)NCc2ccco2)cc1 [CBK264500] | 106 |

| SMILES | viability at 28.5 h, 10 µM [%] |
| --- | --- |
| CC(C)(C)c1ccc(OCc2nnc(Sc3nc4ccc([N+](=O)[O-])cc4s3)n2-c2ccccc2)cc1 [CBK263366] | 105 |
| CN(C)S(=O)(=O)N1CC2(CCN(C(=O)[C@@H]3CN(C(=O)C(C)(C)NC(=O)OC(C)(C)C)C[C@H]3c3cc4ccccc4o3)CC2)c2ccccc21 [CBK014088] | 89 |
| COc1ccc2c(c1)OC1(CCN(C(=O)c3ccc(C(C)=O)cc3)CC1)CC2=O [CBK156457] | 94.2 |
| Brc1cn2ccnc2c(NCCc2ccccn2)n1 [CBK066244] | 92.9 |
| c1cnc(NCc2cc3n(n2)CCN(CC2CCCC2)C3)nc1 [CBK307007] | 87.9 |
| O=C1CC(C(=O)O)SC(NNC(=O)c2ccccc2)=N1 (stereo not drawn) [CBK267944] | 91.2 |
| CC1(C)C(N(O)C(=O)Nc2cccc3ccccc23)N(c2cccc3ccccc23)C(=O)N1CC(=O)NN (stereo not drawn) [CBK261004] | 88.2 |
| O=C(NC(c1ccccc1)c1ccco1)C1CCN(CCN2C(=O)c3ccccc3C2=O)CC1 (stereo not drawn) [CBK148297] | 120 |
| O=C(c1cccs1)N1CC(n2nc(-c3cccs3)ccc2=O)C1 [CBK283347] | 97.3 |
| CCN(CC)CCCNC(=O)N1CCN(CCN2CCOCC2)CC1 [CBK155837] | 90.9 |
| Cc1noc(C)c1CN1CC2CCN(c3ccccc3)C2C1 (stereo not drawn) [CBK304847] | 99.7 |
| O=c1[nH]c(=O)c2c3c(sc2[nH]1)CCCC3 [CBK027724] | 67.6 |
| COc1ccc(NC(=O)c2ccc(N3CCN(Cc4ccccc4)CC3)c([N+](=O)[O-])c2)cc1 [CBK263260] | 106 |
| O=C(CSCCOc1ccc(Br)cc1)Nc1ccc2c(c1)OCCO2 [CBK296714] | 108 |
| CCOC(=O)CN1CCN(c2cc(C#N)ccn2)CC1 [CBK306006] | 89.3 |
| Cc1c(C(=O)N2CCC(c3ccncc3)CC2)oc2ccccc12 [CBK282413] | 109 |
| CC1SC(c2cc3ccccc3o2)N(c2ccc(F)cc2F)C1=O (stereo not drawn) [CBK006917] | 107 |
| COc1ccc([C@@]23CC[C@@H](NC(=O)Nc4ccc(F)cc4)C[C@@H]2N(C)CC3)cc1OC [CBK036458T] | 93.5 |
| C/N=c1\cccccc1NC [CBK022788] | 110 |
| Cc1cc(C)c(OCCOCCN2CCNCC2)c(Br)c1 [CBK266079G] | 99.6 |
| Cc1cc(Cl)c(S(=O)(=O)N2CCN(c3ccccn3)CC2)cc1OCC(N)=O [CBK266553] | 117 |
| Cc1ccc(S(=O)(=O)N(CC(=O)Nc2cccnc2)c2cccc([N+](=O)[O-])c2)cc1 [CBK266404] | 86 |

| SMILES | viability at 28.5 h, 10 µM [%] |
| --- | --- |
| COc1ccc([C@@]23CC[C@@H](NC(=O)Nc4cccc(-c5nn[nH]n5)c4)C[C@@H]2N(C)CC3)cc1OC [CBK051273T] | 87.8 |
| COCc1nc(CN2CCNC(=O)C2c2ccccc2C(F)(F)F)no1 (stereo not drawn) [CBK304157] | 87.2 |
| CN1CCCc2cc(-c3cncn3CC(=O)NC(C)(C)C)ccc21 [CBK281700] | 95 |
| O=C(O)C1=CC(c2c[nH]nc2-c2ccc(F)cc2)n2ncnc2N1 (stereo not drawn) [CBK286906] | 86.2 |
| O=C(Nc1ccc(-c2nc3ccccc3o2)c(O)c1)c1ccc(-c2cccc(Cl)c2)o1 [CBK263422] | 95.4 |
| CCn1cc(S(=O)(=O)NC2(c3ccc(F)cc3)CC2)c(C)n1 [CBK282837] | 92.4 |
| O=C(O)CNS(=O)(=O)c1ccc2nc(O)c(O)nc2c1 [CBK264334] | 94.4 |
| O=C1CN(C(=O)Nc2ccc3c(c2)OCCO3)CCN1 [CBK155860] | 92.9 |
| CCOc1ccc(C(=O)NC2CC3CCC(C2)N3Cc2ccc(OC)cc2)cc1 (stereo not drawn) [CBK121398] | 109 |
| Cc1c(-c2cc(-c3cnn(C)c3C)[nH]n2)cnn1C [CBK288013] | 76 |
| Cc1sc2nc(SCc3nc4ccccc4[nH]3)n(-c3ccc(Cl)c(Cl)c3)c(=O)c2c1C [CBK264594] | 102 |
| CCCc1ccc(S(=O)(=O)Nc2ccccc2C(=O)O)cc1 [CBK042366] | 72.4 |
| Cc1nn(Cc2ccc(Cl)cc2)c(C)c1C(N)C(=O)O (stereo not drawn) [CBK286661] | 89.7 |
| CSCCCNC(=O)c1cnn2c(C)c(Cc3cccnc3)c(C)nc12 [CBK162164] | 104 |
| O=C(Nc1c(F)cccc1F)N(Cc1ccc2ccccc2c1)CC1CCNCC1 [CBK119480] | 100 |
| CCOc1ccccc1NC(=O)NC(=O)C1CCN(CCCc2ccc3c(c2)OCO3)CC1 [CBK034924] | 88.6 |
| c1ccc(-c2oc3ncn4nc(COc5cccc6ccccc56)nc4c3c2-c2ccccc2)cc1 [CBK262898] | 99.9 |
| CCOC(=O)CC(=O)CSc1nc(N)c2c3c(sc2n1)CCCC3 [CBK264942] | 120 |
| Cn1c(=O)c2c(nc(Nc3ccc(Cl)cc3Cl)n2CC(=O)O)n(C)c1=O [CBK286792] | 90.5 |
| COc1ccc(CNC(=O)C2CCCN(c3nc4c(-c5ccccc5)csc4c(=O)[nH]3)C2)cc1 (stereo not drawn) [CBK215464] | 95.2 |
| Nc1ccc(-c2cc(F)cc(F)c2)c2ccccc12 [CBK084314] | 93.2 |
| O=C1CCC(C(=O)N2CC3(CCCC3)c3c(F)cccc32)CN1 (stereo not drawn) [CBK304914] | 85.7 |

| SMILES | viability at 28.5 h, 10 µM [%] |
| --- | --- |
| O=C1C=C(OCc2ccccc2)CN1 [CBK020360] | 94.4 |
| Cn1cc(-c2nccnc2OCCn2cccc2)cn1 [CBK107079] | 88.6 |
| COc1ccc2[nH]cc(/C=C3\C(=O)Nc4ncccc43)c2c1 [CBK017826] | 88.3 |
| COc1ccccc1C(NC(=O)C1CCN(C(=O)c2cccc(Cl)c2)CC1)c1ccccn1 (stereo not drawn) [CBK059637] | 90.3 |
| Cc1ccc(NC(=O)c2ccc(-c3cccc([N+](=O)[O-])c3)o2)cc1-c1nc2ncccc2o1 [CBK262947] | 89.7 |
| CCOc1ccc(N(CC(=O)O)S(=O)(=O)c2ccc(SC)cc2)cc1 [CBK263764] | 103 |
| CC(C(=O)N1CCC(c2nn(C)c3ncccc23)CC1)c1ccccc1 (stereo not drawn) [CBK282166] | 97.4 |
| CN(C)c1cccc(-c2cncc(Nc3ccc(Cl)cc3)n2)c1 [CBK065738] | 98.8 |
| COC(=O)[C@@H](C)NC(=O)[C@@H]1CN(C(=O)NC(C)C)CCN1C(=O)C1CCCCC1 [CBK289622] | 90.7 |
| CCc1noc(C)c1C(=O)N1CC[C@@H](CNC(=O)N2CCCC2)[C@H](O)C1 [CBK307222] | 88.3 |
| Cc1[nH]nc(-c2ccc(OCc3cnn(-c4ccccc4)c3)cc2O)c1Oc1ccc(Cl)cc1 [CBK264939] | 86.8 |
| COC(=O)c1nc(Cl)c(Cl)nc1NS(=O)(=O)c1cccc(Cl)c1C [CBK004709] | 91.8 |
| CC1CCc2c(C(=O)N(C)CC(=O)NC(C)(C)C)csc2C1 (stereo not drawn) [CBK305002] | 97.5 |
| CN(C)CCN(C)c1cncc(-c2cc3ccccc3o2)n1 [CBK066028] | 92.7 |
| CCC(CN1CCCC1)NC(=O)C1CC(=O)Nc2ccccc21 (stereo not drawn) [CBK282757] | 90.6 |
| CN1CCN(NC(=O)CN(C)S(=O)(=O)c2cc(Cl)ccc2Cl)CC1 [CBK267366] | 94.2 |
| CCOc1ccc(CC(=O)N2CCCc3c(cnn3C)C2)cc1 [CBK285325] | 101 |
| O=[N+]([O-])c1cc(F)ccc1Oc1cccc2c1CCCC2 [CBK002559] | 93.5 |
| CC(C)C1OC(NC2CC(C)(C)NC(C)(C)C2)=NC1=O (stereo not drawn) [CBK070360T] | 97.1 |
| O=C(NCc1ccc(Cl)cc1)c1cn(-c2ccccc2)c2ccc(CN3CCOCC3)cc2c1=O [CBK018481] | 98.7 |
